Results published in US12018097.
Read-outs that look alike come from different tables or passages of the source.

Settings: the molecule shown is the open-chain precursor, thioether bond, resin, 4 steps

## catch-resin-ArSO2O-CH2CO-dTrp-Asp-MeSer-Gly-Asp-Pro-MeAla-Asp-Val-MeSer-Gly-Arg-MePhe-MeGly-Tyr-MePhe-Pro-Cys-Gly-NH2?
57-membered ring
  ring closure, conversion: 50%

## catch-resin-ArSO2O-CH2CO-dTrp-Asp-Pro-MeAla-Asp-Val-MeSer-Gly-Arg-MePhe-MeGly-Tyr-MePhe-Pro-Cys-Gly-NH2?
48-membered ring
  ring closure, conversion: 74%

## catch-resin-ArSO2O-CH2CO-dTrp-Cys-Asp-Val-MeSer-Gly-Arg-MePhe-MeGly-Tyr-MePhe-Pro-Cys-Gly-NH2?
42-membered ring
  ring closure, conversion: 28%

## catch-resin-ArSO2O-CH2CO-dTrp-Gly-Asp-Pro-MeAla-Asp-Val-MeSer-Gly-Arg-MePhe-MeGly-Tyr-MePhe-Pro-Cys-Gly-NH2?
51-membered ring
  ring closure, conversion: 51%

## catch-resin-ArSO2O-CH2CO-dTrp-MeAla-Asp-Val-Cys-Gly-NH2?
18-membered ring
  ring closure, conversion: 83%

## catch-resin-ArSO2O-CH2CO-dTrp-MeAla-Asp-Val-MeSer-Cys-Gly-NH2?
21-membered ring
  ring closure, conversion: 66%

## catch-resin-ArSO2O-CH2CO-dTrp-MeAla-Asp-Val-MeSer-Gly-Arg-Cys-Gly-NH2?
27-membered ring
  ring closure, conversion: 98%

## catch-resin-ArSO2O-CH2CO-dTrp-MeAla-Asp-Val-MeSer-Gly-Arg-MePhe-MeGly-Cys-Gly-NH2?
33-membered ring
  ring closure, conversion: 64%

## catch-resin-ArSO2O-CH2CO-dTrp-MeAla-Asp-Val-MeSer-Gly-Arg-MePhe-MeGly-Tyr-Cys-Gly-NH2?
36-membered ring
  ring closure, conversion: 72%

## catch-resin-ArSO2O-CH2CO-dTrp-MeAla-Asp-Val-MeSer-Gly-Arg-MePhe-MeGly-Tyr-MePhe-Pro-Cys-Gly-NH2?
42-membered ring
  ring closure, conversion: 50%

## catch-resin-ArSO2O-CH2CO-dTrp-MeAla-Tyr-Asp-MeSer-Gly-Asp-Pro-MeAla-Asp-Val-MeSer-Gly-Arg-MePhe-MeGly-Tyr-MePhe-Pro-Cys-Gly-NH2?
63-membered ring
  ring closure, conversion: 44%

## catch-resin-ArSO2O-CH2CO-dTrp-MeSer-Gly-Asp-Pro-MeAla-Asp-Val-MeSer-Gly-Arg-MePhe-MeGly-Tyr-MePhe-Pro-Cys-Gly-NH2?
54-membered ring
  ring closure, conversion: 29%

## catch-resin-ArSO2O-CH2CO-dTrp-Pro-MeAla-Asp-Val-MeSer-Gly-Arg-MePhe-MeGly-Tyr-MePhe-Pro-Cys-Gly-NH2?
45-membered ring
  ring closure, conversion: 33%

## catch-resin-ArSO2O-CH2CO-dTrp-Tyr-Asp-MeSer-Gly-Asp-Pro-MeAla-Asp-Val-MeSer-Gly-Arg-MePhe-MeGly-Tyr-MePhe-Pro-Cys-Gly-NH2?
60-membered ring
  ring closure, conversion: 57%
